In US20180265423A1, “Pesticide Dispersion in Concentrated Aqueous Fertilizer Solution” (priority 2014, published 2018):
Where two headings read alike, the source gives them in different places.

Experiments:
[1] = type: physicochemical; conditions: for crystal growth in the fertilizer solutions tested: review of table 2
From the text: Crystal formation in a suspension concentrate is a complex phenomenon. It is believed that if the solubility of the suspended solid chemical is high in the medium, the suspension concentrate is prone to form crystals of the suspended solid chemical in storage. […] The concentrations of the solid pesticides used in this example were low (at a typical ready-to-apply concentration range). If a solid pesticide forms crystals in such a low concentration, it is not suitable for a ready-to-apply pesticide suspension and mostly likely will not be suitable for a more concentrated suspension in fertilizer. […] By “not suitable” is meant that although it may work to some extent, it is not a good candidate for the pesticide SC.
Samples were prepared by adding the components followed by hand-shaking.

[2] = 30 wt % captan suspension in 10-34-0: flow and storage stability (Example 12); type: physicochemical
Method: (§1) 10-34-0 fertilizer (56% ammonium polyphosphate by Plant Food Company Inc.) and Phospholan PS-413 surfactant were combined in a container and mixed thoroughly. Captan fungicide was added to the mixture and then the resulting combination was homogenized. The components were added in amounts to provide a composition containing 69.3 wt % of the 10-34-0 fertilizer solution (56% solution), 1.0 wt % surfactant and 29.7 wt % Captan fungicide.

[3] = Use alone, dilution with water or dispersion of the suspensions into fertilizer concentrates; type: physicochemical; conditions: 10-34-0, URAN 32, URAN 28 and 28-40% AMS
[4] = Quick screening of crystal growth potential in fertilizer concentrates and water, solid pesticides containing a carboxylic acid group (Example 2); type: physicochemical; conditions: 1 wt % powder pesticide, 98 wt % 10-34-0, 1 wt % Witcolate D-510; between 0 C. and 40 C.
[5] = as above; type: physicochemical; conditions: for suitability for suspension in fertilizer solutions: review of table 3; for Comment: crystal growth: between 0 C. and 40 C.
Method: Samples were prepared by adding the components followed by hand-shaking. Samples were placed at 0° C. and observation was made after 1 day, unless otherwise specified.

[6] = type: physicochemical
Method: as §1, with “poly phosphate” for “polyphosphate”, “HE-6614” for “PS-413”, “Trifloxystrobin” for “Captan”, “62.38” for “69.3”, “[…]” for “29.7”

[7] = Stability of 50% clothianidin in 50% URAN 32 fertilizer (Example 6); type: physicochemical
Method: 0.5 g Witcolate D-510 surfactant was added into 100 g URAN 32 fertilizer solution (50 wt % URAN 32 in water). […] Then 100 g clothianidin was added to the resulting solution and mixed well by hand-shaking. This sample was stable and had about 10% top clear with a smooth bottom suspension after 2 weeks at 40° C.
(§2) In other experiments, 0.3% of a pH adjusting agent (40 wt % Citric acid), was included in the SC sample (homogenized sample) and no noticeable effect was observed on stability. Viscosity measurements were made with a Brookfield viscometer at various speeds (rpm) at room temperature with a #64 spindle. This sample was very viscous but it was highly shear-thinning.

[8] = Storage stability of 40% clothianidin SC in 10-34-0 with wetting agent Witcolate D-510 (Example 5); type: physicochemical; conditions: 10-34-0 with Witcolate D-510
Method: The test samples were prepared by adding 60 grams of 10-34-0 fertilizer (from Plant Food) to a bottle. Then various amounts of Witcolate D-510 (2-ethylhexyl sulfate) were added to the 10-34-0 fertilizer and mixed well. Finally, 40 grams of clothianidin (technical grade) was added to the mixture and mixed well by shaking by hand.

[9] = Suspension of clothianidin in 10-34-0 aqueous fertilizer, effect of concentration on stability (Example 3); type: physicochemical; conditions: review of table 4
Method: Various amounts of clothianidin were added to 10-34-0 fertilizer. Samples were shaken by hand until homogeneous.

[10] = Brookfield viscosity of 50% clothianidin in 50% URAN 32; type: physicochemical; conditions: #64 spindle
From the text: as §2

[11] = 1 wt % powder pesticide in 99 wt % 10-34-0, no wetting agent
[12] = 1 wt % powder pesticide in 99 wt % 40% AMS, no wetting agent
[13] = 1 wt % powder pesticide in 99 wt % URAN 32, no wetting agent
[14] = 1 wt % powder pesticide in 99 wt % Water, no wetting agent
[15] = same SC, after a week at 50° C.
[16] = 1 wt % powder pesticide, 98 wt % 10-34-0, 1 wt % Witcolate D-510
[17] = powder pesticide (glyphosate acid 2, 2,4-D acid 1.3, others 1 wt %) in 10-34-0, no wetting agent
[18] = powder pesticide (glyphosate acid 2, 2,4-D acid 1.3, others 1 wt %) in 10-34-0, no wetting agent, 0° C., 1 day unless otherwise specified
[19] = powder pesticide (glyphosate acid 2, 2,4-D acid 1.3, others 1 wt %) in 40% AMS, no wetting agent, 0° C., 1 day unless otherwise specified
[20] = powder pesticide (glyphosate acid 2, 2,4-D acid 1.3, others 1 wt %) in URAN 32, no wetting agent, 0° C., 1 day unless otherwise specified
[21] = 1 wt % powder pesticide, 98 wt % 40% AMS, 1 wt % Witcolate D-510
[22] = 1 wt % powder pesticide, 98 wt % URAN 32, 1 wt % Witcolate D-510
[23] = 1 wt % powder pesticide, 98 wt % Water, 1 wt % Witcolate D-510

Structure (SMILES): O=C1C2CC=CCC2C(=O)N1SC(Cl)(Cl)Cl (centres unmarked) [Captan]
- Comment: powder sank or floated [1, 11]: 0-40 °C Powder sank.
- Comment: suitability [1, 11]: Suitable
- Comment: powder sank or floated [1, 12]: 0-40 °C Powder sank.
- Comment: suitability [1, 12]: Suitable
- Comment: powder sank or floated [1, 13]: 0-40 °C Powder sank.
- Comment: suitability [1, 13]: Suitable
- Comment: powder sank or floated [1, 14]: 0-40 °C Powder sank.
- Comment: suitability [1, 14]: Suitable
- crystal growth in the fertilizer solutions tested [1]: did not have crystal growth
- flow and stability of the resulting SC ([2]; 29.7 wt % Captan, 69.3 wt % 10-34-0 solution, 1.0 wt % Phospholan PS-413, homogenized): easily flowable and stable
- flow at 2° C. ([2]; same SC, 2° C.): still able to flow
- phase separation [2, 15]: no visible phase separation
- used alone, diluted with water, dispersed to a fertilizer concentrate ([3]; 29.7 wt % Captan SC in 10-34-0, gentle stirring): without forming crystals or coagulation

Structure (SMILES): O=C(O)c1nc(Cl)ccc1Cl [Clopyralid]
- Comment: crystal growth [4]: No crystal growth between 0 C.
- Comment: suitability [5, 16]: Suitable
- Comment: suitability [5, 17]: Suitable
- Comment: crystal growth or other change [5, 18]: No crystal growth
- Comment: dissolution [5, 18]: Not dissolved
- Comment: powder sank or floated [5, 18]: Powder floated
- Comment: crystal growth or other change [5, 19]: Crystal growth at room temp
- Comment: dissolution [5, 19]: Not dissolved
- Comment: powder sank or floated [5, 19]: Powder sank
- Comment: suitability ([5]; powder pesticide (glyphosate acid 2, 2,4-D acid 1.3, others 1 wt %) in URAN 32, no wetting agent): Not suitable
- Comment: dissolution [5, 20]: Dissolved
- Comment: suitability ([5]; powder pesticide (glyphosate acid 2, 2,4-D acid 1.3, others 1 wt %) in Water, no wetting agent): Not suitable
- Comment: dissolution ([5]; powder pesticide (glyphosate acid 2, 2,4-D acid 1.3, others 1 wt %) in Water, no wetting agent, 0° C., 1 day unless otherwise specified): Dissolved
- suitability for suspension in fertilizer solutions [5]: may not be suitable

Structure (SMILES): Nc1c(Cl)c(Cl)nc(C(=O)O)c1Cl [Picloram]
- Comment: crystal growth [4]: No crystal growth between 0 C.
- Comment: suitability [5, 16]: some floated. Suitable
- Comment: powder sank or floated [5, 21]: Powder sank
- Comment: suitability [5, 21]: Suitable
- Comment: crystal growth [5, 21]: No crystal growth between 0 C.
- Comment: powder sank or floated [5, 22]: Powder sank
- Comment: suitability [5, 22]: Suitable
- Comment: crystal growth [5, 22]: No crystal growth between 0 C.
- Comment: powder sank or floated [5, 23]: Powder sank
- Comment: suitability [5, 23]: Suitable
- Comment: crystal growth [5, 23]: No crystal growth between 0 C.
- Comment: suitability [5, 17]: Suitable
- Comment: crystal growth or other change [5, 18]: No crystal growth between 0 C.
- Comment: powder sank or floated [5, 18]: Powder sank
- Comment: suitability ([5]; powder pesticide (glyphosate acid 2, 2,4-D acid 1.3, others 1 wt %) in 40% AMS, no wetting agent): Suitable
- Comment: crystal growth or other change [5, 19]: No crystal growth between 0 C.
- Comment: powder sank or floated [5, 19]: Powder sank
- Comment: dissolution [5, 20]: Powder almost dissolved
- suitability for suspension in fertilizer solutions [5]: appears to be suitable

Structure (SMILES): CON=C(C(=O)OC)c1ccccc1CON=C(C)c1cccc(C(F)(F)F)c1 [Trifloxystrobin]
- flow and stability of the resulting SC [6]: easily flowable and stable
- flow at 2° C. ([6]; same SC, 2° C.): still able to flow
- clear phase at the bottom [6, 15]: less than 2.5%
- re-mixing ([6]; same SC, after a week at 50° C., inverting the container): remixed easily
- Comment: powder sank or floated [1, 11]: 0-40 °C Powder sank.
- Comment: suitability [1, 11]: Suitable
- Comment: powder sank or floated [1, 12]: 0-40 °C Powder sank.
- Comment: suitability [1, 12]: Suitable
- Comment: powder sank or floated [1, 13]: 0-40 °C Powder sank.
- Comment: suitability [1, 13]: Suitable
- Comment: powder sank or floated [1, 14]: 0-40 °C Powder sank.
- Comment: suitability [1, 14]: Suitable
- crystal growth in the fertilizer solutions tested [1]: did not have crystal growth
- used alone, diluted with water, dispersed to a fertilizer concentrate ([3]; 36.63 wt % Trifloxystrobin SC in 10-34-0): without forming crystal and coagulation

Structure (SMILES): CN/C(=N\[N+](=O)[O-])NCc1cnc(Cl)s1 [clothianidin]
- stability ([7]; 100 g clothianidin, 100 g URAN 32 fertilizer solution, 0.5 g Witcolate D-510, hand-shaking): stable
- behaviour of the solid in URAN 32 ([7]; URAN 32, all concentrations): sank to the bottom at all concentrations
- clothianidin concentration above which a paste resulted ([7]; URAN 32 system): higher than 55 wt %
- separation ([7]; same composition, homogenization method): did not show noticeable separation
- top clear ([7]; same sample, hand-shaking, after 2 weeks at 40° C.): about 10%
- clothianidin concentration above which the SC was difficult to prepare [8]: greater than 40 wt %
- suspension of the powder in 10-34-0 [9]: without crystal formation and without coagulation
- Viscosity, mPa-s, 24° C. ([10]; 1 RPM): 10200 mPa-s
- Viscosity, mPa-s, 24° C. ([10]; 2 RPM): 6900 mPa-s
- Viscosity, mPa-s, 24° C. ([10]; 4 RPM): 3900 mPa-s
- Viscosity, mPa-s, 24° C. ([10]; 10 RPM): 2300 mPa-s
- Viscosity, mPa-s, 24° C. ([10]; 20 RPM): 1500 mPa-s
- Viscosity, mPa-s, 24° C. ([10]; 50 RPM): 1300 mPa-s
- Viscosity, mPa-s, 24° C. ([10]; 100 RPM): 1200 mPa-s
